The assay relates to BDF1 mice, B16 melanoma ip, median survival T/C. Description: NCI In Vivo Anticancer Drug Screen. Data for tumor model B16 Melanoma (intraperitoneal) in B6D2F1 (BDF1) mice. To be noted: endpoint: median survival time, higher = longer survival. A digest of the protocol:
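Each result divides a survival or tumor-size measurement in the compound-treated group by the same measurement in the vehicle group.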

Where [1] appears, read: dose: 6.25 mg/kg/injection, schedule: Q01DX009 (ip), vehicle: saline with Tween-80.
The mark [2] stands for this setting: dose: 12.5 mg/kg/injection, schedule: Q01DX009 (ip), vehicle: saline with Tween-80.
The mark [3] stands for this setting: dose: 25.0 mg/kg/injection, schedule: Q01DX009 (ip), vehicle: saline with Tween-80.
The mark [4] stands for this setting: dose: 50.0 mg/kg/injection, schedule: Q01DX009 (ip), vehicle: saline with Tween-80.
The mark [5] stands for this setting: dose: 6.25 mg/kg/injection, schedule: Q01DX009 (ip), vehicle: saline.
Where [6] appears, read: dose: 12.5 mg/kg/injection, schedule: Q01DX009 (ip), vehicle: saline.
The mark [7] stands for this setting: dose: 12.5 mg/kg/injection, schedule: Q01DX009 (ip), vehicle: Klucel (hydroxypropylcellulose) (HPC).
[8] abbreviates: dose: 25.0 mg/kg/injection, schedule: Q01DX009 (ip), vehicle: Klucel (hydroxypropylcellulose) (HPC).
Setting [9] is: dose: 100.0 mg/kg/injection, schedule: Q01DX009 (ip), vehicle: saline with Tween-80.
Where [10] appears, read: dose: 200.0 mg/kg/injection, schedule: Q01DX009 (ip), vehicle: saline with Tween-80.
[11] abbreviates: dose: 400.0 mg/kg/injection, schedule: Q01DX009 (ip), vehicle: saline with Tween-80.
[12] abbreviates: dose: 3.12 mg/kg/injection, schedule: Q01DX009 (ip), vehicle: saline with Tween-80.
Where [13] appears, read: dose: 100.0 mg/kg/injection, schedule: Q04DX003 (ip), vehicle: Klucel (hydroxypropylcellulose) (HPC).
The mark [14] stands for this setting: dose: 200.0 mg/kg/injection, schedule: Q04DX003 (ip), vehicle: Klucel (hydroxypropylcellulose) (HPC).
Setting [15] is: dose: 400.0 mg/kg/injection, schedule: Q04DX003 (ip), vehicle: Klucel (hydroxypropylcellulose) (HPC).
The mark [16] stands for this setting: dose: 100.0 mg/kg/injection, schedule: Q01DX009 (ip), vehicle: Klucel (hydroxypropylcellulose) (HPC).
Where [17] appears, read: dose: 25.0 mg/kg/injection, schedule: Q01DX009 (ip), vehicle: saline.
Where [18] appears, read: dose: 50.0 mg/kg/injection, schedule: Q01DX009 (ip), vehicle: saline.
Where [19] appears, read: dose: 50.0 mg/kg/injection, schedule: Q01DX009 (ip), vehicle: Klucel (hydroxypropylcellulose) (HPC).

“And” between values parts separate entries of the source, which are not always exact repeats. Equal entries are not always repeated. Toxic doses and inconclusive results are not listed. Peptide text beside a SMILES is read from it. * marks the point of attachment. Cbz = O=C(OCc1ccccc1)*

Consider `CCn1cnc2c(=S)nc[nH]c21`, for which the T/C under setting [1] was 97 % of control; the T/C under setting [2] is 86 % of control; the T/C under setting [3] was 95 % of control; the T/C under setting [4] is 89 % of control and 104 % of control.

As to `O=C(O)C1(C(=O)O)CCCCC1.[NH2-].[NH2-].[Pt+2]`, the T/C under setting [5] was 159 % of control and the T/C under setting [6] was 188 % of control.

In the case of `S=C(N=Nc1ccccc1)NNc1ccccc1`, the T/C is, setting by setting: (dose: 18.8 mg/kg/injection, schedule: Q04DX003 (ip), vehicle: saline with Tween-80) 102 % of control; (dose: 18.9 mg/kg/injection, schedule: Q01DX009 (ip), vehicle: saline with Tween-80) 88 % of control; (dose: 37.5 mg/kg/injection, schedule: Q01DX009 (ip), vehicle: saline with Tween-80) 93 % of control; (dose: 37.5 mg/kg/injection, schedule: Q04DX003 (ip), vehicle: saline with Tween-80) 92 % of control; (dose: 75.0 mg/kg/injection, schedule: Q04DX003 (ip), vehicle: saline with Tween-80) 92 % of control; (dose: 150.0 mg/kg/injection, schedule: Q04DX003 (ip), vehicle: saline with Tween-80) 97 % of control.

Turning to `CCCCNC(C)(C)C(S)c1ccc(Cl)cc1` (stereo not drawn), the T/C (dose: 6.25 mg/kg/injection, schedule: Q01DX009 (ip), vehicle: Klucel (hydroxypropylcellulose) (HPC)) was 102 % of control; the T/C under setting [7] is 97 % of control; the T/C under setting [8] is 89 % of control.

Turning to `Cn1nc(N)c2ncc(-c3ccc(Cl)cc3)nc21`, the T/C was 91 % of control under setting [2] and 90 % of control under setting [3].

As for `C(=C\c1cnc2ccccc2n1)/c1ccc2c(c1)OCO2`, the T/C reads like this: (dose: 75.0 mg/kg/injection, schedule: Q01DX009 (ip), vehicle: Klucel (hydroxypropylcellulose) (HPC)) 105 % of control; (dose: 150.0 mg/kg/injection, schedule: Q01DX009 (ip), vehicle: Klucel (hydroxypropylcellulose) (HPC)) 94 % of control.

Turning to `O=[N+]([O-])c1ccc(/C=C/c2ccc([N+](=O)[O-])cc2S(=O)(=O)O)c(S(=O)(=O)O)c1`, the T/C was 104 % of control under setting [9], 95 % of control under setting [10] and 109 % of control under setting [11].

For the molecule `CC[n+]1c(C)sc2cc3c(cc21)OCO3`, the T/C runs as follows: (dose: 25.0 mg/kg/injection, schedule: Q01DX009 (ip), vehicle: carboxymethylcellulose (CMC)) 108 % of control; (dose: 50.0 mg/kg/injection, schedule: Q01DX009 (ip), vehicle: carboxymethylcellulose (CMC)) 106 % of control.

With `NC(=O)C(Cc1ccccc1)NC(=O)C(Cc1ccccc1)NC(=O)C(Cc1ccccc1)NC(=O)OCc1ccccc1` (stereo not drawn) (Cbz-Phe-Phe-Phe-NH2; configuration not given here), the T/C under setting [12] is 100 % of control, the T/C under setting [1] was 89 % of control, the T/C under setting [2] was 96 % of control and the T/C under setting [3] is 91 % of control.

Regarding `CNC(=O)Nc1cccc2c(=O)[nH][nH]c(=O)c12`, the T/C runs as follows: under setting [13], 112 % of control; under setting [14], 102 % of control; under setting [15], 91 % of control.

As to `CNc1ccc(C(=O)O)cc1I`, the T/C is 105 % of control under setting [16]; 100 % of control under setting [13]; 120 % of control (dose: 200.0 mg/kg/injection, schedule: Q01DX009 (ip), vehicle: Klucel (hydroxypropylcellulose) (HPC)); 104 % of control under setting [14]; 91 % of control (dose: 400.0 mg/kg/injection, schedule: Q01DX009 (ip), vehicle: Klucel (hydroxypropylcellulose) (HPC)); 100 % of control under setting [15].

Take `C=CC12COC(=O)C(=C)C1C1OC(=O)C(=C)C1C(O)C2` (stereo not drawn): the T/C (dose: 0.93 mg/kg/injection, schedule: Q01DX009 (ip), vehicle: Klucel (hydroxypropylcellulose) (HPC)) is 95 % of control; the T/C (dose: 1.87 mg/kg/injection, schedule: Q01DX009 (ip), vehicle: Klucel (hydroxypropylcellulose) (HPC)) is 104 % of control; the T/C (dose: 3.75 mg/kg/injection, schedule: Q01DX009 (ip), vehicle: Klucel (hydroxypropylcellulose) (HPC)) was 101 % of control; the T/C (dose: 7.5 mg/kg/injection, schedule: Q01DX009 (ip), vehicle: Klucel (hydroxypropylcellulose) (HPC)) is 98 % of control.

In the case of `CN(C)CCOCCOC(=O)N1c2ccccc2Sc2ccccc21`, the T/C was 102 % of control under setting [5], 112 % of control under setting [6], 116 % of control under setting [17] and 109 % of control under setting [18].

As for `CC(=O)Oc1cc(-c2c(C)cc(C)cc2C)c(OC(C)=O)cc1C`, the T/C under setting [13] is 93 % of control, the T/C under setting [14] is 91 % of control and the T/C under setting [15] is 97 % of control.

`Cc1cccc(Nc2c(N)nc(N)nc2N)c1`: the T/C by setting is: under setting [7], 101 % of control; under setting [8], 104 % of control; under setting [19], 106 % of control.

Take `CC1CCC2(OC1)OC1CC3C4CCC5CC(O)CCC5(C)C4CCC3(C)C1C2C` (stereo not drawn): the T/C was 99 % of control (dose: 10.0 mg/kg/injection, schedule: Q01DX009 (ip), vehicle: Klucel (hydroxypropylcellulose) (HPC)); 97 % of control (dose: 20.0 mg/kg/injection, schedule: Q01DX009 (ip), vehicle: Klucel (hydroxypropylcellulose) (HPC)); 95 % of control (dose: 40.0 mg/kg/injection, schedule: Q01DX009 (ip), vehicle: Klucel (hydroxypropylcellulose) (HPC)).

In the case of `CC(O)c1ccc[n+](CCc2cn(C)c3ccccc23)c1` (stereo not drawn), the T/C runs as follows: under setting [5], 107 % of control; under setting [6], 113 % of control; under setting [17], 104 % of control.

For the molecule `CS(C)=O`, the T/C reads like this: (dose: 1:200.0 dilution, schedule: Q03HX088 (ip), vehicle: saline) 89 % of control; (dose: 1:400.0 dilution, schedule: Q03HX088 (ip), vehicle: saline) 89 % of control; (dose: 1.5 grams/kg/injection, schedule: Q01DX009 (ip), vehicle: saline) 96 % of control and 101 % of control; (dose: 3.0 grams/kg/injection, schedule: Q01DX009 (ip), vehicle: saline) 106 % of control and 108 % of control; (dose: 6.0 grams/kg/injection, schedule: Q01DX009 (ip), vehicle: saline) 97 % of control.

On to `CCC(=O)NC(CC(C)C)C(=O)NC(CC(C)C)C(=O)NC(C=O)CCCN=C(N)N` (stereo not drawn) (tested in a mixture with another compound), for which the T/C runs as follows: under setting [6], 100 % of control and 105 % of control; under setting [17], 94 % of control and 105 % of control; under setting [18], 99 % of control and 105 % of control; (dose: 100.0 mg/kg/injection, schedule: Q01DX009 (ip), vehicle: saline) 108 % of control and 120 % of control.

Regarding `O=C1C(Br)C2CCC1C2C(=O)O` (stereo not drawn), the T/C by setting is: under setting [9], 111 % of control; under setting [10], 94 % of control; under setting [11], 89 % of control.

Regarding `COC(=O)C(F)C(Br)C(=O)OC` (stereo not drawn), the T/C is 105 % of control under setting [12]; 99 % of control under setting [1]; 94 % of control under setting [2]; 99 % of control under setting [3]; 98 % of control under setting [4].

In the case of `NC(=O)NC1CCCCCC1`, the T/C reads like this: under setting [9], 108 % of control; under setting [10], 104 % of control; under setting [11], 95 % of control.

With `CNC(=O)Nc1ccc(Cl)cc1C`, the T/C under setting [8] is 95 % of control; the T/C under setting [19] was 97 % of control; the T/C under setting [16] is 92 % of control and 121 % of control.

In the case of `CCC(=O)c1ccc2c(c1)N(C(C)CN(C)C)c1ccccc1S2` (stereo not drawn), the T/C runs as follows: under setting [6], 120 % of control; under setting [17], 110 % of control; under setting [18], 105 % of control.

These data come from PubChem BioAssay AID192 (DTP/NCI, 2004).
